In article PMC9138090, “Study on the Neuroprotective, Radical-Scavenging and MAO-B Inhibiting Properties of New Benzimidazole Arylhydrazones as Potential Multi-Target Drugs for the Treatment of Parkinson’s Disease” (Antioxidants, 2022):
Structures can show the parent of a compound that is named as a salt.

Columns and labels:
[1] = test system: rat brain synaptosomes; assay: 6-OHDA-induced neurotoxicity, GSH level; assay type: cell-based; conditions: for restoration of GSH level vs. 6-OHDA treatment: 10 µM pretreatment, 6-OHDA 150 mmol/L 1 h
Experimental: (§1) Synaptosomes were prepared from brains of adult male Wistar rats. The brains were homogenized in 10 volume of cold buffer 1, containing 5 mM HEPES and 0.32 M sucrose (pH = 7.4). The brain homogenate was centrifuged twice at 1000× g for 5 min at 4 °C. The supernatant was collected and centrifuged 3 times at 10,000× g for 20 min at 4 °C. The pellet was re-suspended in ice-cold buffer 1. The synaptosomes were isolated by using Percoll reagent to prepare the gradient. Synaptosomes were re-suspended and incubated in buffer 2, containing 290 mM NaCl, 0.95 mM MgCl2 × 6H2O, 10 mM KCl, 2.4 mM CaCl2 × H2O, 2.1 mM NaH2PO4, 44 mM HEPES, and 13 mM D-glucose. Incubations were performed in a 5% CO2 + 95% O2 atmosphere. The content of synaptosomal protein was determined according to the method of Lowry et al. using bovine serum albumin as a standard.
(§2) The metabolism and oxidation of dopamine cause reactive oxygen radicals and reactive quinones to be produced, which could lead to neurotoxicity and neurodegeneration. The synaptosomes were incubated with the compounds (10 µM) for 30 min and then 6-hydroxydopamnine (150 mmol/L) was used to induce neurotoxicity. […] After 1 h, they were centrifuged on a microcentrifuge for 1 min at 15,000 rpm. The precipitates were gently mixed with buffer B and glucose and centrifuged for a second time at 15,000 rpm for 1 min. After the second wash, buffer B and glucose were added to the precipitates.
(§3) In the presented experiments, an in vitro assessment of the possible antioxidant and neuroprotective effects of the newly synthetized compounds was performed in a model of 6-OHDA induced toxicity in rat brain synaptosomes. 6-OHDA is a neurotoxicant that structurally resembles dopamine and can be used in different in vivo and in vitro models for neurotoxicity. This model resembles the histological, biochemical, and physiological characteristics of neurodegenerative diseases such as Parkinson’s and Alzheimer’s disease. […] However, their uptake into brain synaptosomes is similar among primates and rodents and they are suitable in vitro models for PD. The main mechanism of 6-OHDA toxicity includes induction of oxidative stress. It undergoes auto-oxidation or metabolic degradation to p-quinone and produces hydrogen peroxide, superoxide, and hydroxyl radicals. The process causes lipid peroxidation, protein oxidation, and DNA oxidation and finally results in oxidative stress and mitochondrial dysfunction. Rat brain synaptosomes were pretreated with compounds 3e, 3h, 3i, 3m, melatonin, and rasagiline (10 μM); after that, the samples were subjected to 6-OHDA (150 mmol/L, 1 h). The protective effects were evaluated by measurement of synaptosomal viability (MTT-test) and GSH levels (Figure 3).

[2] = test system: rat brain synaptosomes; assay: 6-OHDA-induced neurotoxicity, synaptosomal viability; assay type: cell-based; conditions: for increase of synaptosomal viability vs. 6-OHDA treatment: 10 µM pretreatment, 6-OHDA 1 h
Experimental: as §1
Synaptosomal viability was measured by (3-(4,5)-dimethylthiazol-2-yl)-2,5-diphenyl tetrazolium bromide)-test, described by Mungarro-Menchaca et al. The synaptosomes were incubated with the compounds and then treated with (3-(4,5)-dimethylthiazol-2-yl)-2,5-diphenyl tetrazolium bromide) solution (0.5 mg/mL) for 1 h at 37 °C. After incubation they were centrifuged at 15,000× g for 1 min. The formed formazan crystals were dissolved in DMSO (Dimethyl sulfoxide). The extinction was measured spectrophotometrically at λ = 580 nm.
as §2, §3

[3] = test system: SH-SY5Y cells; assay: H2O2-induced oxidative stress model in SH-SY5Y cells; assay type: cell-based, human; conditions: 90 min pre-incubation, H2O2 1 mM 15 min
Experimental: SH-SY5Y cells were seeded in 96-well plates at a density of 3.5 × 10^4/well and allowed to attach at the wells’ bottom overnight. […] Afterwards, the SH-SY5Y cells were washed with phosphate-buffered saline (PBS) to remove the extracellular amount of the test compounds. […] Then, the contents of all wells were changed with culture medium. After 24 h, the amount of attached viable cells was evaluated by MTT assay. […] Rasagiline and melatonin (Sigma-Aldrich Chemie GmbH) were used as reference compounds because of their well-established neuroprotective activity. […] The toxic mechanisms of hydrogen peroxide include the generation of reactive hydroxyl radicals and formation of products which could damage cellular lipids, proteins and DNA. […] For comparison, the effects of two compounds with well established antioxidant activity—rasagiline and melatonin—were also evaluated.

[4] = MTT cytotoxicity on SH-SY5Y cells; assay type: cell-based, human; conditions: human, SH-SY5Y neuroblastoma cells, MTT test, 24 h incubation; read-out: IC50, in vitro cytotoxicity on SH-SY5Y cells
Experimental: Human neuroblastoma cell line SH-SY5Y was obtained from the European Collection of Cell Cultures (ECACC, Salisbury, UK). The cells were maintained in 75 cm^2 flasks at 37 °C in a humidified atmosphere with 5% CO2 and cultured in RPMI 1640 medium, supplemented with 10% fetal bovine serum and 2 mM L-glutamine.
MTT (Sigma-Aldrich Chemie GmbH, Schnelldorf, Germany) assay is based on interaction between tetrazolium dye 3-(4,5-dimethylthiazol-2-yl)-2,5-diphenyltetrazolium bromide and succinic dehydrogenase in the living cells’ mitochondria. In this reaction, the formed purple formazan crystals indicate the presence of viable cells. SH-SY5Y cells were seeded in 96-well microplates at a density 2.5 × 10^4 cells/well and allowed to attach to the well surface at 37 °C in a humidified atmosphere with 5% CO2 (24 h). Different concentrations of compounds ([…]) were added to cells and incubated for 24 h. For each concentration, a set of at least 8 wells were used. After the treatment, the solution in each well was substituted with MTT (3-(4,5-dimethylthiazol-2-yl)-2,5-diphenyltetrazolium bromide) solution (0.5 mg/mL in culture medium). The microplates were further incubated for 3 h at 37 °C and the obtained formazan crystals were dissolved by 100 µL/well of DMSO. The absorbance was measured in a multiplate reader Synergy 2 (BioTek Instruments, Inc, Highland Park, Winooski, VT, USA) at 570 nm (690 nm for background absorbance).
An important step in the development of new pharmacologically active compounds is the establishment of their safety profile. An in vitro toxicity evaluation was carried out on the neuroblastoma cell line SH-SY5Y, which is a well-established model in neuroscience. The neuroblastoma SH-SY5Y are human derived cells with relatively homogeneous neuroblast-like structure. The cells express a dopamine-β-hydroxylase and tyrosine hydroxylase enzyme activity, specific types of human proteins and protein isoforms. The possible neurotoxic effects of the potential drug candidates were measured by cell viability assay (MTT-test). The IC50 values were used as a robust parameter for comparison. The test compounds were dissolved in DMSO and serially diluted in cell culture medium to achieve final concentrations ranging from 1 to 500 µM; the culture medium containing DMSO in the corresponding concentration was used as untreated controls. A concentration dependent effect on cell viability was observed after 24 h incubation.

[5] = Fe(II)-induced oxidative damage of lecithin (TBA-RS); conditions: 90 µmol/L, lecithin 1 mg/mL, FeCl2 0.1 mmol/L
Experimental: The classical method of determining the TBA-reactive substances at 532 nm as described by Asakawa and Matsushita has been used. Two groups of measurement compositions named controls and samples were prepared in phosphate buffer (K2HPO4/KH2PO4, pH 7.4) for each of the used substrates. Both of them contained equivalent concentrations of lecithin (1 mg/mL) or 2-deoxyribose (0.5 mmol/L) and FeCl2 (0.1 mmol/L). In the controls, the tested hydrazones have been omitted and in the samples the effect of the newly designed compounds at the concentrations indicated below the figures has been determined. The obtained samples were incubated at 37 °C for 30 min. The reaction was stopped, and after adding 0.5 mL 2.8% trichloroacetic acid and 0.5 mL of thiobarbituric acid, the samples were heated in boiling water for 20 min. The lecithin containing samples were centrifuged at 3000 rpm for 20 min and the supernatant was aspired out. The results have been presented as a percentage of the control sample, treated only with ferrous iron where we expected maximum oxidative damage under the described conditions.

## NCCc1cc(O)c(O)cc1O [6-OHDA, 6-hydroxydopamine, reference compound]
[1]; 6-OHDA 150 mmol/L, 1 h
  reduction of GSH level compared to untreated controls: 50%
[2]; 6-OHDA, 1 h
  reduction of synaptosomal vitality compared to untreated controls: 56%

## COc1ccc2[nH]cc(CCNC(C)=O)c2c1 [Melatonin]
[1]
  restoration of GSH level vs. 6-OHDA treatment: 70%
[3]; 1 µM
  cell viability protection vs. H2O2-treatment: 20%
[3]; 10 µM
  cell viability protection vs. H2O2-treatment: 29%
[3]; 50 µM
  cell viability protection vs. H2O2-treatment: 52%
[4]
  IC50 at 24 h: > 500 µM
[5]
  sample/control absorbance ratio (% of the control), lecithin peroxidation: 75%
[2]
  increase of synaptosomal viability vs. 6-OHDA treatment: 68%

## C#CCN[C@@H]1CCc2ccccc21 [Rasagiline HCl, Rasagiline]
[1]
  restoration of GSH level vs. 6-OHDA treatment: 60%
[3]; 1 µM
  cell viability protection vs. H2O2-treatment: 10%
[3]; 10 µM
  cell viability protection vs. H2O2-treatment: 20%
[3]; 50 µM
  cell viability protection vs. H2O2-treatment: 39%
[4]
  IC50 at 24 h: > 500 µM
[2]
  increase of synaptosomal viability vs. 6-OHDA treatment: 61%
